# Activity calls are given as the source filed them. No cut-off for these calls is given here.
# Tests used:
# [1] = biological target: T1, DNA topoisomerase 1 (Homo sapiens) (UniProt P11387); assay: Inhibition of human DNA topoisomerase 1-mediated relaxation of supercoiled DNA at 312 uM
# T1 sequence (whole entry): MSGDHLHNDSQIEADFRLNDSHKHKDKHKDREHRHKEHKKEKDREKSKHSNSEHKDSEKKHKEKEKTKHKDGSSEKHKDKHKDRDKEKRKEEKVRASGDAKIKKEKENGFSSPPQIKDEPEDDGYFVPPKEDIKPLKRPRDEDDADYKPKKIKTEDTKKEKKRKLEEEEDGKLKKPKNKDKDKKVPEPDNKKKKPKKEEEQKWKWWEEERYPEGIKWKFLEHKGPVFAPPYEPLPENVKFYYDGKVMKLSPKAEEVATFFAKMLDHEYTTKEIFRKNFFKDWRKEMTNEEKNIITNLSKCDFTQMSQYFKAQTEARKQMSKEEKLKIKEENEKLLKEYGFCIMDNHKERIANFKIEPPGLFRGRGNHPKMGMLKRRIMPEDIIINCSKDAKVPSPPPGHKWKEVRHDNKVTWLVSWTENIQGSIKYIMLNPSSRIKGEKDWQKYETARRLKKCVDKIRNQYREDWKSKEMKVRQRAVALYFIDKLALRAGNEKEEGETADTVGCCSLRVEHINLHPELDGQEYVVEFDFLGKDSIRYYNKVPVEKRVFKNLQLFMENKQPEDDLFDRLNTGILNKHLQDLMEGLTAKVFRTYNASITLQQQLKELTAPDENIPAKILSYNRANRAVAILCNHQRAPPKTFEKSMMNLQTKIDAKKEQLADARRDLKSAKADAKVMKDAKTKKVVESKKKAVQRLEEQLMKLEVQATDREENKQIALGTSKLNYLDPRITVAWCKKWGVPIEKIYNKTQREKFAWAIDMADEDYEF
# [2] = biological target: T1, DNA topoisomerase 1 (Homo sapiens); assay: Inhibition of human DNA topoisomerase 1-mediated relaxation of supercoiled DNA at 450 uM
# DNA topoisomerase 1 [3] = biological target: T2, DNA topoisomerase 1 (Homo sapiens, UniProt P11387); assay: Inhibition of human DNA topoisomerase 1-mediated relaxation of supercoiled DNA by gel electrophoresis
# T2 sequence (P11387 whole entry): T1 sequence (whole entry)
# [4] = biological target: DNA topoisomerase 2-alpha (Homo sapiens, UniProt P11388); assay: Inhibition of human DNA topoisomerase 2-mediated relaxation of supercoiled DNA by gel electrophoresis
# Chain of DNA topoisomerase 2-alpha (P11388 whole entry): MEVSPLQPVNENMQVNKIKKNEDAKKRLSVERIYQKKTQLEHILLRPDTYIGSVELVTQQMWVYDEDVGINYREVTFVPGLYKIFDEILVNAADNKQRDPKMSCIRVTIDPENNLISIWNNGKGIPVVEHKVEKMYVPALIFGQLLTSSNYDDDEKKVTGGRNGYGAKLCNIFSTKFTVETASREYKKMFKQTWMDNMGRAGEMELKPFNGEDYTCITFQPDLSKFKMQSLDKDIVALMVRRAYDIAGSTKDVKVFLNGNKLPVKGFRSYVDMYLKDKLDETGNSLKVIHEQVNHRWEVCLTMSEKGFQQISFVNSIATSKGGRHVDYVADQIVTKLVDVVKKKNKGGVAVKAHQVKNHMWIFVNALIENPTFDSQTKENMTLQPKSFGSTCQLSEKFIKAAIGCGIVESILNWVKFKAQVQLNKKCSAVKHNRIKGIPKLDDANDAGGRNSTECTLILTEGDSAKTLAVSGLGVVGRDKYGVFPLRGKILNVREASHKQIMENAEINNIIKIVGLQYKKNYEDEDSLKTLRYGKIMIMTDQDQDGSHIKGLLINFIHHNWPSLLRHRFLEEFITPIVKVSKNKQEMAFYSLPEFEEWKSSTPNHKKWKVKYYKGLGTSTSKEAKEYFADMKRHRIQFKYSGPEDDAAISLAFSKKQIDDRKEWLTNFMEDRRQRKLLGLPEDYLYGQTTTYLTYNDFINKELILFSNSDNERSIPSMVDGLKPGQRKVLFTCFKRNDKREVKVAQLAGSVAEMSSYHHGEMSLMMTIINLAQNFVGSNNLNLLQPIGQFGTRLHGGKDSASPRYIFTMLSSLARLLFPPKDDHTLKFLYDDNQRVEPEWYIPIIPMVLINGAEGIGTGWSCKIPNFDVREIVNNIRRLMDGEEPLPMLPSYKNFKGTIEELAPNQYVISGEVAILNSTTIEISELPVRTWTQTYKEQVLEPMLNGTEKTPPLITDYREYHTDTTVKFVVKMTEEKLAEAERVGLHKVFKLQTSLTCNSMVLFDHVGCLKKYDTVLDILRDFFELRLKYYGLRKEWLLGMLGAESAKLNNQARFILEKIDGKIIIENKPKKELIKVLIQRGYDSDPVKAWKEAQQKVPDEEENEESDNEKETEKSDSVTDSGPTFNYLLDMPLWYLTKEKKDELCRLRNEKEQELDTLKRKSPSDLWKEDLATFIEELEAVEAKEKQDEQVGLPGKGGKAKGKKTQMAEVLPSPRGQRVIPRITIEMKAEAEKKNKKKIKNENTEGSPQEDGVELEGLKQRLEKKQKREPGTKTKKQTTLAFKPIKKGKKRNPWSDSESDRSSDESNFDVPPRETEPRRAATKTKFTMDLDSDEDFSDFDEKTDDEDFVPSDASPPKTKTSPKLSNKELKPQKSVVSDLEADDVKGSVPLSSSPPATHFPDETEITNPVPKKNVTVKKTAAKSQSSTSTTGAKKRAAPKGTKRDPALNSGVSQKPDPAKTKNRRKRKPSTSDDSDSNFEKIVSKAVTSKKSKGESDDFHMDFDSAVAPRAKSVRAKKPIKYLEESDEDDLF
# A549 [5] = assay: Cytotoxicity against human A549 cells at 25 uM after 48 hrs by WST8 assay; assay type: functional, cell-based
# PC-3 [6] = assay: Cytotoxicity against human PC3 cells at 25 uM after 48 hrs by WST8 assay; assay type: functional, cell-based
# HL-60 [7] = assay: Cytotoxicity against human HL60 cells at 25 uM after 48 hrs by WST8 assay; assay type: functional, cell-based
# PANC-1 [8] = assay: Cytotoxicity against human PANC1 cells at 25 uM after 48 hrs by WST8 assay; assay type: functional, cell-based
# MRC5 = assay: Cytotoxicity against human MRC5 cells at 25 uM after 48 hrs by WST8 assay; assay type: cell-based; settings: mrc5, 48 h
# [9] = biological target: T1, DNA topoisomerase 1 (Homo sapiens); assay: Inhibition of human DNA topoisomerase 1-mediated relaxation of supercoiled DNA at 63 to 125 uM
# DNA topoisomerase 1 [10] = biological target: T2, DNA topoisomerase 1; assay: Inhibition of human DNA topoisomerase 1 at free enzyme state
# [11] = biological target: T1, DNA topoisomerase 1 (Homo sapiens); assay: Inhibition of human DNA topoisomerase 1 assessed as prevention of DNA-enzyme complex formation
# [12] = biological target: T1, DNA topoisomerase 1 (Homo sapiens); assay: Inhibition of human DNA topoisomerase 1 assessed as stabilize DNA-enzyme covalent complex
# A549 [13] = assay: Cytotoxicity against human A549 cells after 48 hrs by WST8 assay; assay type: functional; settings: A549, 48 h
# PC-3 [14] = assay: Cytotoxicity against human PC3 cells after 48 hrs by WST8 assay; assay type: functional; settings: PC-3, 48 h
# HL-60 [15] = assay: Cytotoxicity against human HL60 cells after 48 hrs by WST8 assay; assay type: functional; settings: HL-60, 48 h
# PANC-1 [16] = assay: Cytotoxicity against human PANC1 cells after 48 hrs by WST8 assay; assay type: functional; settings: PANC-1, 48 h
# [17] = Cytotoxicity against human MRC5 cells after 48 hrs by WST8 assay; assay type: cell-based
# [18] = biological target: T1, DNA topoisomerase 1 (Homo sapiens); assay: Inhibition of human DNA topoisomerase 1 assessed as intercalate into DNA at 312 uM
SMILES,inhibition [1],inhibition [2],IC50 (DNA topoisomerase 1 [3]) [µM],IC50 [4] [µM],inhibition [9],IC50 (DNA topoisomerase 1 [10]) [µM],inhibition [11],inhibition [12],Activity [18],growth inhibition (GI) (A549 [5]),growth inhibition (GI) (PC-3 [6]),growth inhibition (GI) (HL-60 [7]),growth inhibition (GI) (PANC-1 [8]),growth inhibition (GI) (MRC5),GI50 (A549 [13]) [µM],GI50 (PC-3 [14]) [µM],GI50 (HL-60 [15]) [µM],GI50 (PANC-1 [16]) [µM],GI50 at 48 h [17] [µM]
C/C=C(/C)C(=O)O[C@H]1[C@H](OC(=O)/C(C)=C\C)[C@]2(CO)[C@H](O)[C@H](O)[C@]3(C)C(=CC[C@@H]4[C@@]5(C)CC[C@H](O[C@@H]6O[C@H](C(=O)O)[C@@H](O)[C@H](O[C@@H]7O[C@@H](CO)[C@H](O)[C@H]7O)[C@H]6O[C@@H]6O[C@H](CO)[C@H](O)[C@H](O)[C@H]6O)C(C)(C)[C@@H]5CC[C@]43C)[C@@H]2CC1(C)C,,,32.7,> 250,Active,23.8,Active,inactive,,,,,,,4.58,14.3,16.9,21.5,5.26
CC1(C)C=C2[C@H]3CC[C@@H]4[C@@]5(C)CC[C@H](O)C(C)(C)[C@@H]5CC[C@@]4(C)[C@]3(C)CC[C@@]2(C)CC1 [GERMANICOL],inactive,,,,,,,,,inactive,inactive,inactive,inactive,Not Active,,,,,
C/C=C(/C)C(=O)O[C@H]1[C@H](OC(=O)/C(C)=C\C)[C@]2(CO)[C@H](O)C[C@]3(C)C(=CC[C@@H]4[C@@]5(C)CC[C@H](O[C@@H]6O[C@H](C(=O)O)[C@@H](O)[C@H](O[C@@H]7O[C@@H](CO)[C@H](O)[C@H]7O)[C@H]6O[C@@H]6O[C@H](CO)[C@@H](O)[C@H](O)[C@H]6O)[C@](C)(CO)[C@@H]5CC[C@]43C)[C@@H]2CC1(C)C,,,53,> 250,Active,23.8,Active,inactive,,,,,,,6.36,1.6,1.94,11.1,5.5
CC(=O)O[C@H]1CC[C@]2(C)[C@H]3CC=C4[C@@H]5CC(C)(C)CC[C@]5(C)CC[C@@]4(C)[C@]3(C)CC[C@H]2C1(C)C [beta-AMYRIN ACETATE],inactive,,,,,,,,,inactive,inactive,inactive,inactive,Not Active,,,,,
C/C=C(/C)C(=O)O[C@H]1[C@H](OC(=O)C(C)CC)[C@]2(CO)[C@H](O)C[C@]3(C)C(=CC[C@@H]4[C@@]5(C)CC[C@H](O[C@@H]6O[C@H](C(=O)O)[C@@H](O)[C@H](O[C@@H]7O[C@@H](CO)[C@H](O)[C@H]7O)[C@H]6O[C@@H]6O[C@H](CO)[C@H](O)[C@H](O)[C@H]6O)C(C)(C)[C@@H]5CC[C@]43C)[C@@H]2CC1(C)C (stereo partly specified) [AESCULIOSIDE IVC],,,49.7,> 250,Active,23.8,Active,inactive,,,,,,,10.2,7.7,8.02,15.6,4.34

# The next lines start with results.
inhibition [1],inhibition [2],IC50 (DNA topoisomerase 1 [3]) [µM],IC50 [4] [µM],inhibition [9],IC50 (DNA topoisomerase 1 [10]) [µM],inhibition [11],inhibition [12],Activity [18],SMILES,growth inhibition (GI) (A549 [5]),growth inhibition (GI) (PC-3 [6]),growth inhibition (GI) (HL-60 [7]),growth inhibition (GI) (PANC-1 [8]),growth inhibition (GI) (MRC5),GI50 (A549 [13]) [µM],GI50 (PC-3 [14]) [µM],GI50 (HL-60 [15]) [µM],GI50 (PANC-1 [16]) [µM],GI50 at 48 h [17] [µM]
inactive,Active,109,> 250,,,,,,C/C=C(/C)C(=O)O[C@H]1[C@H](O)[C@]2(CO)[C@H](O)[C@H](O)[C@]3(C)C(=CC[C@@H]4[C@@]5(C)CC[C@H](O[C@@H]6O[C@H](C(=O)O)[C@@H](O)[C@H](O[C@@H]7O[C@@H](CO)[C@H](O)[C@H]7O)[C@H]6O[C@@H]6O[C@H](CO)[C@H](O)[C@H](O)[C@H]6O)C(C)(C)[C@@H]5CC[C@]43C)[C@@H]2CC1(C)C [AESCULIOSIDE IIA],inactive,inactive,inactive,inactive,Not Active,,,,,
,,51.8,> 250,Active,23.8,Active,inactive,,C/C=C(/C)C(=O)O[C@H]1[C@H](OC(=O)C(C)CC)[C@]2(CO)[C@H](O)[C@H](O)[C@]3(C)C(=CC[C@@H]4[C@@]5(C)CC[C@H](O[C@@H]6O[C@H](C(=O)O)[C@@H](O)[C@H](O[C@@H]7O[C@@H](CO)[C@H](O)[C@H]7O)[C@H]6O[C@@H]6O[C@H](CO)[C@H](O)[C@H](O)[C@H]6O)C(C)(C)[C@@H]5CC[C@]43C)[C@@H]2CC1(C)C (stereo partly specified) [AESCULIOSIDE IVA],,,,,,9.91,9.22,7.26,17.6,4.78
inactive,,,,,,,,Active,C/C=C(/C)C(=O)O[C@H]1[C@H](O)[C@]2(CO)[C@H](O)C[C@]3(C)C(=CC[C@@H]4[C@@]5(C)CC[C@H](O[C@@H]6O[C@H](C(=O)O)[C@@H](O)[C@H](O[C@@H]7O[C@@H](CO)[C@H](O)[C@H]7O)[C@H]6O[C@@H]6O[C@H](CO)[C@@H](O)[C@H](O)[C@H]6O)[C@](C)(CO)[C@@H]5CC[C@]43C)[C@@H]2CC1(C)C [AESCULIOSIDE IIB],inactive,inactive,inactive,inactive,Not Active,,,,,
,,48.6,> 250,Active,,,,Active,C/C=C(\C)C(=O)O[C@H]1[C@H](OC(=O)/C(C)=C/C)[C@]2(CO)[C@H](O)[C@H](O)[C@]3(C)C(=CC[C@@H]4[C@@]5(C)CC[C@H](O[C@@H]6O[C@H](C(=O)O)[C@@H](O)[C@H](O[C@@H]7O[C@@H](CO)[C@H](O)[C@H]7O)[C@H]6O[C@@H]6O[C@H](CO)[C@@H](O)[C@H](O)[C@H]6O)[C@](C)(CO)[C@@H]5CC[C@]43C)[C@@H]2CC1(C)C [AESCULIOSIDE IIID],,,,,,23.7,14.6,15.2,21.7,9.01
inactive,,> 250,> 250,,,,,,C/C=C(/C)C(=O)O[C@H]1[C@H](O)[C@]2(CO)[C@H](O)[C@H](O)[C@]3(C)C(=CC[C@@H]4[C@@]5(C)CC[C@H](O[C@@H]6O[C@H](C(=O)O)[C@@H](O)[C@H](O[C@@H]7OC[C@@H](O)[C@H](O)[C@H]7O)[C@H]6O[C@@H]6O[C@H](CO)[C@@H](O)[C@H](O)[C@H]6O)C(C)(C)[C@@H]5CC[C@]43C)[C@@H]2CC1(C)C [ERYNGIOSIDE 94A],,,,inactive,,7.34,7.99,9.38,,8.51
,,45.1,> 250,Active,,,,Active,C/C=C(/C)C(=O)O[C@H]1[C@H](OC(=O)/C(C)=C/C)C(C)(C)C[C@H]2C3=CC[C@@H]4[C@@]5(C)CC[C@H](O[C@@H]6O[C@H](C(=O)O)[C@@H](O)[C@H](O[C@@H]7O[C@@H](CO)[C@H](O)[C@H]7O)[C@H]6O[C@@H]6O[C@H](CO)[C@@H](O)[C@H](O)[C@H]6O)[C@](C)(CO)[C@@H]5CC[C@@]4(C)[C@]3(C)[C@@H](O)[C@@H](O)[C@]21CO [AESCULIOSIDE IIIE],,,,,,21.3,12.8,14,21.4,21.5
,inactive,> 250,> 250,,,,,,C/C=C(/C)C(=O)O[C@H]1[C@H](OC(=O)/C(C)=C\C)[C@]2(CO)[C@H](O)C[C@]3(C)C(=CC[C@@H]4[C@@]5(C)CC[C@H](O)C(C)(C)[C@@H]5CC[C@]43C)[C@@H]2CC1(C)C,,,,,,5.48,6.84,5.46,11.2,7.18
